In patent publication US11033535B2, “Oxadiazoles and thiadiazoles as TGF-β inhibitors” (Southern Research Institute, priority 2017, dated 2021):

Assays:
[1] = molecular target: (Homo sapiens, UniProt P07996); test: ELISA based assays of TSP1 activation of latent TGF-β (purified protein components or TSP1-treated cell conditioned media); assay type: biochemical; set-up: purchased R&D Systems
Experimental: Compound 35 was evaluated for its ability to inhibit TGF-β in both ELISA based assays with purified protein components (latent TGFβ and TSP1 or in TSP1-treated cell conditioned media).
(§1) For initial screening, an ELISA-based screening assay was used in which purified human platelet TSP-1 was incubated with compounds and then incubated with recombinant latent TGF-β1 (purchased from R&D Systems). Activity is measured in a commercially available ELISA which detects only active TGF-β (R &D Systems). Activity in the presence of compounds is compared to activity in TSP-1+latent TGF-β samples without inhibitory compounds (Lu et al. (2016) Am J Pathol 186:678-690).
Target sequence in this assay (P07996 19-1170): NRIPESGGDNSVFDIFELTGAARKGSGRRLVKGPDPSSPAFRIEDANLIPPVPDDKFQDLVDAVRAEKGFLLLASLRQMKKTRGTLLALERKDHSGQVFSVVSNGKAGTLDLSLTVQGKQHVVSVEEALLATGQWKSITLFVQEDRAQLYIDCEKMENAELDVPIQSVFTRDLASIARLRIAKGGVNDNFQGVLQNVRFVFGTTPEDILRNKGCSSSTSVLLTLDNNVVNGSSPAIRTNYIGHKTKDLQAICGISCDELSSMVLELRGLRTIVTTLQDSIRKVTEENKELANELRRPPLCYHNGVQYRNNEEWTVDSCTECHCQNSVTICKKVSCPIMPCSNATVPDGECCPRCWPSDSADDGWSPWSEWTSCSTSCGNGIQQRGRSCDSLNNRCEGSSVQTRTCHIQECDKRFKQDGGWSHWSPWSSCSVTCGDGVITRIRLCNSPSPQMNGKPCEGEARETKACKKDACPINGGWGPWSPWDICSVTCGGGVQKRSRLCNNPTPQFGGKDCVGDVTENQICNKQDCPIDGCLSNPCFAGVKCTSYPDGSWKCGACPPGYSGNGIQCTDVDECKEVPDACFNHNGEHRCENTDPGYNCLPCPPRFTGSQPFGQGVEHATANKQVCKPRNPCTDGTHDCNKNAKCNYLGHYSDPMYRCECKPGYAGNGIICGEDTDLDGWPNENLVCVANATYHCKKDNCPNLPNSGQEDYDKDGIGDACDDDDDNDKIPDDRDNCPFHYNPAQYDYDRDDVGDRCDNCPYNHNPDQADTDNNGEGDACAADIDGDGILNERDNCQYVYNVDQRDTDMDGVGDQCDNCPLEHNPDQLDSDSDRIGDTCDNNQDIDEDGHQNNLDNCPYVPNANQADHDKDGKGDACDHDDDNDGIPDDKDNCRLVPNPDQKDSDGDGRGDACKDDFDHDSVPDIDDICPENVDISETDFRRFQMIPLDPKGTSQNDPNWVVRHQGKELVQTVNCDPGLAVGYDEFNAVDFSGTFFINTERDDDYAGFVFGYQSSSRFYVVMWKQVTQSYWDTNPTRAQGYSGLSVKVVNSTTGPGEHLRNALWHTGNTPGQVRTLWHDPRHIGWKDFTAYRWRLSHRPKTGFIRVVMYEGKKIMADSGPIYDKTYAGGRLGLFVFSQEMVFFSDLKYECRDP

[2] = molecular target: (Homo sapiens, UniProt P07996); test: Secondary Assay, inhibitory activity of thiadiazole and oxadiazole analogs as TGF-beta inhibitors; assay type: biochemical
Experimental: A summary of the inhibitory activity of representative thiadiazole analogs (Tables i and ii) and oxadiazole analogs (Table ii) is shown below.
as §1
Target sequence in this assay (P07996 whole entry): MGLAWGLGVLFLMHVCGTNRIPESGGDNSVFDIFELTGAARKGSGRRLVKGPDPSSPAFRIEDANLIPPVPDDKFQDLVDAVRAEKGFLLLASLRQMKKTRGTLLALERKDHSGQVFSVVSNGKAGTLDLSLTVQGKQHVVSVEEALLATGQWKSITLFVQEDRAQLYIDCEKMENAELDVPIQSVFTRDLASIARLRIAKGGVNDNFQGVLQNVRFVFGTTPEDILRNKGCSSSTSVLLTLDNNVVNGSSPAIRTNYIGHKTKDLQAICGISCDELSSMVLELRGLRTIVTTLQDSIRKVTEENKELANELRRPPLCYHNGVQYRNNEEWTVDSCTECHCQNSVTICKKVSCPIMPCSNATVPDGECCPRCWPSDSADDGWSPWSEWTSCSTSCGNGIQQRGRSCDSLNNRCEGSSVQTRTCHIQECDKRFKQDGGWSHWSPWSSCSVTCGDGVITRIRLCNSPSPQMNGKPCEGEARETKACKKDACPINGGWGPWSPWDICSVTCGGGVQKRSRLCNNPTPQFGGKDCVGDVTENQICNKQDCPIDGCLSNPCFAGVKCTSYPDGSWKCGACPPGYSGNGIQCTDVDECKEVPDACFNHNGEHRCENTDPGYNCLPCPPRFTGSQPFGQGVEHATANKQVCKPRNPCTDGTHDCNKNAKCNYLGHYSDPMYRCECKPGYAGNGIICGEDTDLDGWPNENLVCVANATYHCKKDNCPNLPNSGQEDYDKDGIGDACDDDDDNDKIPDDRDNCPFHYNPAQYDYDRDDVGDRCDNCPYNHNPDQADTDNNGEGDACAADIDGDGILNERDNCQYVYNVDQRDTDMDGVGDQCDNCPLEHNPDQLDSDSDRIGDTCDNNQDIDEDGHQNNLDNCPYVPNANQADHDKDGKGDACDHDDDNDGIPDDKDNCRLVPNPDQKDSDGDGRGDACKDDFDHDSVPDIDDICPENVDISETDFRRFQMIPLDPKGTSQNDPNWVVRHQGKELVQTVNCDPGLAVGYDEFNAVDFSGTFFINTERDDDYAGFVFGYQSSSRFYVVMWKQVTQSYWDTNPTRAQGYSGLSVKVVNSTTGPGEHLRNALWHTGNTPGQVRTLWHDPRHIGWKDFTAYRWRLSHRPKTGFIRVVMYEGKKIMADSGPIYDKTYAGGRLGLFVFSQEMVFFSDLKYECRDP
To specifically assess activity of compounds in liver cell specific assays, two different assays were used. In the first, human hepatic stellate cells were incubated overnight in low serum media to condition the media with secreted latent TGF-β. Purified TSP1 either pre-incubated with compounds or not will be added to cultures and then conditioned media harvested to assess TGF-β biological activity using the R&D Systems ELISA as above. Hepatic stellate cells will be purchased from commercial sources. Although hepatic stellate cells are the primary drivers of liver fibrosis, conditions which drive liver fibrosis can induce hepatocyte TSP-1 expression which can then have paracrine effects on controlling TGF-β activation in hepatic stellate cells. Furthermore, TGF-β can negatively impact hepatocyte regeneration following injury. Therefore, the ability of compounds to block TSP-1 activation of latent TGF-β will also be assessed in cultured primary human hepatocytes following the protocol described for the hepatic stellate cells. Similar approaches have successfully been used to screen compounds which inhibit human myeloma cell derived latent TGF-β activation by TSP-1 (Lu et al. (2016) Am J Pathol 186:678-690).

[3] = tested on: BLM induced lung fibrosis; test: BLM induced unilateral lung fibrosis model; assay type: in vivo, SD rats; set-up: left lung bronchial and arteriole damages (score), In the fibrosis core (n = 6) / left lung bronchial and arteriole damages (score), In the border of fibrosis (n = 6): scale not given here; conditions: for body weight, Changes in the ratio (%) / body weight: 10 mg/kg/d ip (n = 6); for body weight: in g (unit assumed)
Experimental: Species and quality level: SD rats, SPF grade; Gender and number: male, 12; Purchasing body weight range: 260-280 g; Company Certificate No.: SCXX (zhe) 2018-0001, Zhejiang Vital River Laboratory Animal Technology Co., Ltd.
Model Establishment: This study was carried out in strict accordance with the SOP institutional guidelines for the care and use of laboratory animals. Rats were anesthetized by intraperitoneal injection of pentobarbital sodium at dose of 50 mg/kg. Then rat neck skin was disinfected and opened in layers. The trachea was exposed carefully. Bleomycin (BLM) was directly injected into left main bronchus at a dose of 3 mg/kg body weight in volume of 1.0 ml/kg via a cannula. After closing the trachea and skin in layers the animal was moved on an electric heat pad at 37° C. to wait waking up from anesthesia before returning to holding cages with free access to water and diet.
Rats were assigned into two groups: Model (Group-1, n=6), CPD-X (Group-2, 10 mg/kg/d, n=6) (Table 13).
a Test article, CPD-X was designed as an intraperitoneal injection once a day starting from day-8 of modeling for 14 days (Table 13). The saline as a vehicle for model group via a ip injection once a day for 14 days.
One day after the last dosing all animals were euthanized according to the standard SOP at KCl. After confirming the animal death the left lung BALF was collected according the standard SOP at KCl. The BALF was frozen in liquid nitrogen and stored at −80° C. The left lungs then were perfused with equal volume of 10% formaldehyde solution (3 mL for each lung).
Lung pathology was processed after lung fixation. All animal hearts were collected at same time, weighted, and fixed in 10% formaldehyde solution for histology examination.
The whole left lung was dehydrated and wax embedded following KCl pathology SOP, then sectioned at […] in thickness. HE and Masson Trichrome staining were processed following KCl pathology standard staining SOPs, whole slides were then scanned by Hamamatsu NanoZoomer Digital Pathology S210 slide scanner after staining. Bronchiole and pulmonary arteriole damage and inflammatory cell infiltration in fibrosis core and fibrotic board area were scored with H&E stained slides (Table 14 and Table 15, FIG. 8), for which 5 different areas were selected in each lung slide. BLM induced left lung injury area and Ashcraft scoring for fibrosis were evaluated with Masson Trichrome stained slides (Table 16 and FIG. 9), for which 10 different areas were selected in each lung slide.
The animal hearts were dehydrated and wax embedded following KCl pathology SOP, then sectioned at […] in thickness. HE staining was processed following KCl pathology standard staining SOPs, whole slides were then scanned by Hamamatsu NanoZoomer Digital Pathology S210 slide scanner after staining. The thickness of left ventricle wall (LV), septum and right ventricle wall (RV) were measured at five different points and calculated the average thickness of LV, septum and RV.
a Statistical analysis was performed using Graphpad prism 6.0 software. Descriptive results were expressed as mean±sem or mean±sd. Statistical comparisons were performed using t-test, two-way ANOVA analysis. The p value <0.05 was considered as statistically significant.

[4] = tested on: BLM induced lung fibrosis; test: BLM induced unilateral lung fibrosis model; assay type: in vivo, SD rats; conditions: 10 mg/kg/d ip (n = 6), day 77
[5] = 10 mg/kg ip QD 14 days from day-8, p < 0.05 vs. model

SMILES: CC(=O)N[C@@H](CCCCN)c1nnc(-c2ccccc2)s1 [Compound 35, (S)—N-(5-amino-1-(5-phenyl-1,3,4-thiadiazol-2-yl)pentyl)acetamide]
- inhibition of TGF-β ([1]; at 1 pm): 15%
- inhibition of TGF-β ([1]; at 50 pm): 67%
- inhibition of TGF-β ([1]; at 100 pm): 67%

SMILES: CC(=O)NC(Cc1ccc(CN)cc1)c1nnc(-c2ccncc2)s1 (stereo not shown) [Compound 39245, N-(2-(4-(aminomethyl)phenyl)-1-(5-(pyridin-4-yl)-1,3,4-thiadiazol-2-yl)ethyl)acetamide]
- IC50 ([2]; Table I): 33 nM

SMILES: CC(=O)NC(CCCCN)c1nnc(C2CCCCC2)s1 (stereo not shown) [Compound 39139, N-(5-Amino-1-(5-cyclohexyl-1,3,4-thiadiazol-2-yl)pentyl)acetamide]
- IC50 ([2]; Table II): 13 nM

SMILES: CC(=O)NC(Cc1ccc(N)cc1)c1nnc(-c2cccc(OC(F)(F)F)c2)s1 (stereo not shown) [Compound 39999, N-(2-(4-aminophenyl)-1-(5-(3-(trifluoromethoxy)phenyl)-1,3,4-thiadiazol-2-yl)ethyl)acetamide]
- IC50 ([2]; Table I): 15 nM

SMILES: CC(=O)NC(Cc1ccc(CN)cc1)c1nnc(-c2cccc(OC(F)(F)F)c2)s1 (stereo not shown) [CPD-X]
- body weight recovery vs. model group [3]: significant difference in body recovery
- fibrosis by Ashcraft scoring [3]: significant reduction in fibrosis
- share of fibrosis score ≤3 [3]: about 80%
- left lung bronchial and arteriole damages (score), In the fibrosis core (n = 6) ([3]; 10 mg/kg ip QD 14 days from day-8, H&E, p < 0.001 vs. model): 6.23 ± 0.67
- left lung bronchial and arteriole damages (score), In the border of fibrosis (n = 6) ([3]; 10 mg/kg ip QD 14 days from day-8, H&E, p < 0.01 vs. model): 4.8 ± 0.54
- Lang damage area (%) ([3]; 10 mg/kg ip QD 14 days from day-8, Masson Trichrome, left lung): 70.69 ± 10.66%
- Ashcraft fibrosis score ([3]; 10 mg/kg ip QD 14 days from day-8, Masson Trichrome, p < 0.01 vs. model): 2.55 ± 0.29
- % of fibrosis score (≤3) [3, 5]: 90 ± 10.95 %
- % of fibrosis score (≥4) [3, 5]: 10 ± 10.95 %
- body weight, Changes in the ratio (%) ([3]; day 0): 0%
- body weight ([3]; day 0): 286.0 ± 6.1
- body weight, Changes in the ratio (%) ([3]; day 2): −9.6 ± 3.6%
- body weight ([3]; day 2): 258.7 ± 13.4
- body weight, Changes in the ratio (%) ([3]; day 5): −8.3 ± 6.7%
- body weight ([3]; day 5): 262.4 ± 22.6
- body weight, Changes in the ratio (%) ([3]; day 7): −4.4 ± 7.6%
- body weight ([3]; day 7): 273.6 ± 24.9
- body weight, Changes in the ratio (%) ([3]; day 9): −0.8 ± 7.5%
- body weight ([3]; day 9): 283.9 ± 24.5
- body weight, Changes in the ratio (%) ([3]; day 11): 2.8 ± 7.0%
- body weight ([3]; day 11): 294.1 ± 23.5
- body weight, Changes in the ratio (%) ([3]; day 13): 5.5 ± 6.4%
- body weight ([3]; day 13): 302.0 ± 22.0
- body weight, Changes in the ratio (%) ([3]; day 15): 8.2 ± 6.1%
- body weight ([3]; day 15): 309.0 ± 20.4
- body weight, Changes in the ratio (%) ([3]; day 17): 13.7 ± 6.4%
- body weight ([3]; day 17): 325.3 ± 21.2
- body weight, Changes in the ratio (%) ([3]; day 19): 14.4 ± 5.9%
- body weight ([3]; day 19): 327.3 ± 20.7
- body weight, Changes in the ratio (%) ([3]; day 21): 18.4 ± 5.3%
- body weight ([3]; day 21): 338.9 ± 19.4
- therapeutic effect (summary) ([3]; ip from day-8 of modeling for 14 days): significant improvement in bronchial and arteriole damage and alveolar fibrosis
- right ventricle wall thickness ([3]; no statistic difference as compared to model group): slightly limited the right ventricle wall thickness
- bronchial and arteriole damages in fibrotic core and border of fibrosis ([3]; p<0.001): significant therapeutic effect on reduction of bronchial and arteriole damages
- body weight, Changes in the ratio (%) [4]: 19.4 ± 5.4%
- body weight ([4]; in g (unit assumed)): 341.6 ± 18.8

SMILES: CC(=O)N[C@@H](Cc1ccc(CN)cc1)c1nnc(-c2cccc(OC(F)(F)F)c2)s1 (single isomer, unassigned) [Compound 41891]
- IC50 ([2]; Table I): 26 nM
